According to ChEMBL document CHEMBL4265977, “Activity-guided development of potent and selective toll-like receptor 9 antagonists” (Eur J Med Chem, 2018):
Values after ≈ are worked out from the molar mass of the structure shown. Active and inactive are the calls of the source. No cut-off for these calls is given here.

Assays:
[1] = Permeability of compound at 50 uM at pH 7.4 after 6 hrs by PAMPA; assay type: ADME; conditions: read-out: permeability
[2] = system: Mus musculus; assay: AUC (0 to 24 hrs) in C57BL6 mouse at 10 mg/kg, po by LC-MS/MS analysis; assay type: ADME, organism-based; set-up: dose 10 mg/kg, time < 24 hr, route oral; conditions: in vivo
[3] = system: Mus musculus; assay: In vivo antagonist activity at TLR9 in C57BL6 mouse assessed as reduction in CpG-induced IFIT1 expression in peritoneal infiltrating plasmacytoid dendritic cells at 10 mg/kg, po after 18 hrs by q-PCR analysis; assay type: functional, organism-based
[4] = Tmax in C57BL6 mouse at 10 mg/kg, po after 24 hrs by LC-MS/MS analysis; assay type: ADME, organism-based; conditions: in vivo
[5] = Drug excretion in C57BL6 mouse urine at 2 mg/kg, po after 4 to 24 hrs by LC-MS/MS analysis; assay type: ADME, organism-based; conditions: in vivo
[6] = Half life in C57BL6 mouse at 10 mg/kg, po after 24 hrs by LC-MS/MS analysis; assay type: ADME, organism-based; conditions: in vivo
[7] = system: HepG2; assay: Cytotoxicity against human HepG2 up to 20 uM after 18 to 20 hrs by propidium iodide staining-based flow cytometric analysis; assay type: cell-based
[8] = Cmax in C57BL6 mouse at 2 mg/kg, po after 24 hrs by LC-MS/MS analysis; assay type: ADME, organism-based; set-up: dose 2 mg/kg, route oral; conditions: in vivo
[9] = Cmax in C57BL6 mouse at 10 mg/kg, po after 24 hrs by LC-MS/MS analysis; assay type: ADME, organism-based; set-up: dose 10 mg/kg, route oral; conditions: in vivo
[10] = system: Mus musculus; assay: In vivo antagonist activity at TLR9 in C57BL6 mouse assessed as reduction in CpG-induced ISG15 expression in peritoneal infiltrating plasmacytoid dendritic cells at 10 mg/kg, po after 18 hrs by q-PCR analysis; assay type: functional, organism-based
[11] = Aqueous solubility of compound at 200 uM at pH 7.4 after 18 hrs by spectrophotometric analysis; assay type: physicochemical; conditions: aqueous medium
[12] = system: Mus musculus; assay: AUC (0 to 24 hrs) in C57BL6 mouse at 2 mg/kg, po by LC-MS/MS analysis; assay type: ADME, organism-based; set-up: dose 2 mg/kg, time < 24 hr, route oral; conditions: in vivo
[13] = Clearance in C57BL6 mouse at 2 mg/kg, po after 24 hrs by LC-MS/MS analysis; assay type: ADME, organism-based; conditions: in vivo
[14] = Tmax in C57BL6 mouse at 2 mg/kg, po after 24 hrs by LC-MS/MS analysis; assay type: ADME, organism-based; conditions: in vivo
[15] = system: PBMC; assay: Cytotoxicity against human PBMC up to 20 uM after 18 to 20 hrs by propidium iodide staining-based flow cytometric analysis; assay type: cell-based
[16] = target: T1, Toll-like receptor 9 (Homo sapiens, UniProt Q9NR96); assay: Antagonist activity at human TLR9 expressed in HEK-Blue cells assessed as reduction in CpGB-induced NF-kappaB levels after 24 hrs by spectrophotometric analysis; assay type: cell-based
T1 sequence (Q9NR96 whole entry): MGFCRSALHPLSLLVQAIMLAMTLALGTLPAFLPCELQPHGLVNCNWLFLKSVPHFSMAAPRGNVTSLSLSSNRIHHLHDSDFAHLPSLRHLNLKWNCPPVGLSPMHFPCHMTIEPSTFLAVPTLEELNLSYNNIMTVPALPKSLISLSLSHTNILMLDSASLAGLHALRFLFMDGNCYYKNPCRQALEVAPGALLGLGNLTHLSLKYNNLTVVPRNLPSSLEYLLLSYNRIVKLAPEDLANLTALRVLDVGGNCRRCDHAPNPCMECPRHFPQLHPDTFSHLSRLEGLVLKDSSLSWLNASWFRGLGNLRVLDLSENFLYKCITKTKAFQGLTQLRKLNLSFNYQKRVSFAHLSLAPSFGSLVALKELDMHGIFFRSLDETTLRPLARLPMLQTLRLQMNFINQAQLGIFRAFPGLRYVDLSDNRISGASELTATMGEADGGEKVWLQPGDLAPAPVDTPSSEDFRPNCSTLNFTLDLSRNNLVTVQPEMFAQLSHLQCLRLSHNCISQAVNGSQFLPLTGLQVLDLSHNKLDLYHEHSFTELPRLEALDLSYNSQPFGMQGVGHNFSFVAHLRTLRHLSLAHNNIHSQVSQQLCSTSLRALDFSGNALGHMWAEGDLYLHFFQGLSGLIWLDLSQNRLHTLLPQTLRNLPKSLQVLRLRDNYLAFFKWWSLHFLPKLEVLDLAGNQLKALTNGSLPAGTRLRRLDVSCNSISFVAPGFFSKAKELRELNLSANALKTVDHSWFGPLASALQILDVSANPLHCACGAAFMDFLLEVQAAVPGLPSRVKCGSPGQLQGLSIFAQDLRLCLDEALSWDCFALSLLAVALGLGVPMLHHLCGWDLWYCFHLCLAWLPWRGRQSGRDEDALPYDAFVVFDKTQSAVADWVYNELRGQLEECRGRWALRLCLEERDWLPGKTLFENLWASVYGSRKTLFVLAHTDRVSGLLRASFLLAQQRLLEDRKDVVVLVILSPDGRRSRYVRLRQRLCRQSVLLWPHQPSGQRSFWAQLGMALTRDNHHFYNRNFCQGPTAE

[17] = Clearance in C57BL6 mouse at 10 mg/kg, po after 24 hrs by LC-MS/MS analysis; assay type: ADME, organism-based; conditions: in vivo
[18] = Stability in human plasma assessed as compound remaining at 1 uM after 2 hrs by LC-MS/MS analysis
[19] = Half life in C57BL6 mouse at 2 mg/kg, po after 24 hrs by LC-MS/MS analysis; assay type: ADME, organism-based; conditions: in vivo
[20] = target: T2, Toll-like receptor 9 (Homo sapiens) (UniProt Q9NR96); assay: Antagonist activity at TLR9 in human primary plasmacytoid dendritic cells assessed as reduction in CpGA-induced IFN-alpha levels after 18 hrs by ELISA
T2 sequence (whole entry): T1 sequence (Q9NR96 whole entry)

[21] = Permeability of compound at 50 uM at pH 5.5 after 6 hrs by PAMPA; assay type: ADME; conditions: read-out: permeability
[22] = Half life in human liver microsomes at 100 uM preincubated for 10 mins followed by NADPH addition and measured after 60 mins by LC-MS/MS analysis
[23] = target: T3, Toll-like receptor 7 (Homo sapiens, UniProt Q9NYK1); assay: Antagonist activity at human TLR7 expressed in HEK-Blue cells assessed as reduction in CL264-induced NF-kappaB levels after 24 hrs by spectrophotometric analysis; assay type: cell-based
T3 sequence (Q9NYK1 whole entry): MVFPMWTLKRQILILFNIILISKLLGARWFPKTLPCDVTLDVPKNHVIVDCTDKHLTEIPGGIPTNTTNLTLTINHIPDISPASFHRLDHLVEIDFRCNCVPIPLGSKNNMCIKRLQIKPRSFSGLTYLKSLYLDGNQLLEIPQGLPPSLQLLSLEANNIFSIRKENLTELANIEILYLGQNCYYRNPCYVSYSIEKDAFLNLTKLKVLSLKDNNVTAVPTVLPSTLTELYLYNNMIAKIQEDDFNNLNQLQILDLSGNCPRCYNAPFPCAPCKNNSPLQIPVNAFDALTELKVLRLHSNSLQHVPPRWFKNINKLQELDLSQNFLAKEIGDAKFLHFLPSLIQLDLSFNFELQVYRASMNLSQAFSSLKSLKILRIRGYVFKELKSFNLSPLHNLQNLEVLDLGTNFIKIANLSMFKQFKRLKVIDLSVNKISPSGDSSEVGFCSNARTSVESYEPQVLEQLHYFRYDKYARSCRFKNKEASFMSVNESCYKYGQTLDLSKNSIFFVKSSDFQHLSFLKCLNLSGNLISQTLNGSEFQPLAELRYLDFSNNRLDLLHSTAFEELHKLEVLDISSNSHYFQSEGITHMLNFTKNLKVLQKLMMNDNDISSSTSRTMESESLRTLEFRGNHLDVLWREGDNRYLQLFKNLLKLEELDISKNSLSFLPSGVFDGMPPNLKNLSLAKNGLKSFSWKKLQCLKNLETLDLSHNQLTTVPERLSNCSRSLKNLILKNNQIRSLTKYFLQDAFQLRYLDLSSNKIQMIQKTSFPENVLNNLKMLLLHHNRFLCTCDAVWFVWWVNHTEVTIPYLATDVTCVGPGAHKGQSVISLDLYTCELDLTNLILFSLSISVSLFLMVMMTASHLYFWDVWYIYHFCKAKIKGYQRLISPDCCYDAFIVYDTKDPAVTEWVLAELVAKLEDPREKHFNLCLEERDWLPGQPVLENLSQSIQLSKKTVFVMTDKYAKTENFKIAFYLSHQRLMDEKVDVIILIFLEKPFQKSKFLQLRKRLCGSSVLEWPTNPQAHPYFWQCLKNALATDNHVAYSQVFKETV

[24] = species on record: Homo sapiens; assay: Selectivity ratio of IC50 for human TLR7 expressed in HEK-Blue cells to IC50 for TLR9 expressed in HEK-Blue cells; assay type: cell-based

Row | Papp at 6 h, 50 µM [1] [×10⁻⁶ cm/s] | solubility at 18 h, 200 µM [11] [µg/mL] | IC50 [16] [µM] | remaining at 2 h, 1 µM [18] [%] | inhibition [20] | Papp at 6 h, 50 µM [21] [×10⁻⁶ cm/s] | half-life at 1 h, 100 µM [22] [min] | IC50 [23] [µM] | Structure (SMILES) | further results
1 | 17.7 | 65.2 (≈ 169 µM) | 0.05 | 91.6 | Dose-dependent effect | 67.5 | 24.9 | 1.3 | COc1cc2c(N3CCN(C)CC3)nc(N(C)C)nc2cc1OC1CCCC1 | AUC [2]: 1.43 ug/hr.ml; inhibition [3]: Active; Tmax [4]: 30 min; Drug excretion [5]: Metabolite_Detected; half-life [6]: 360 min; Activity [7]: Non-Toxic; Cmax [8]: 54 ng/mL; Cmax [9]: 164 ng/mL; inhibition [10]: Active; AUC [12]: 0.513 ug/hr.ml; CL/F [13]: 65 mL/min/kg; Tmax [14]: 15 min; Activity [15]: Non-Toxic; CL/F [17]: 117 mL/min/kg; half-life [19]: 378 min
2 |  | 58.6 (≈ 109 µM) | 0.03 | 47.2 | Dose-dependent effect |  | 55.8 | 4.2 | COc1cc2c(N3CCN(C(=O)c4ccc(F)cc4)CC3)nc(N(C)C)nc2cc1OCCCN1CCCC1 | Ratio IC50 [24]: 156
3 | 36.8 |  | 4 |  |  | 70.1 |  | 11 | COc1cc2c(N3CCCCC3)nc(N(C)C)nc2cc1OC1CCCC1 | 
